According to patent US4389412A, “Substituted cyclopropanecarboxylic acid esters and pesticidal compositions containing the same as active ingredient” (priority 1979, dated 1983):
Converted amounts (≈) assume the structure as drawn. Where two headings read alike, the source gives them in different places.

Experiments:
[1] = test system: houseflies (Musca domestica); assay: Mortality test with houseflies by topical application method; conditions: 24 h; for mortality at 0.001 mg: read-out: Pesticidal effect, housefly
[2] = test system: green rice leafhoppers (Nephotettix cincticeps Uhler); assay: Mortality test with green rice leafhoppers by topical application method; conditions: for LD50 / mortality at 0.01 µg/female / mortality at 0.1 µg/female / mortality at 1 µg/female / mortality at 10 ng: Nephotettix cincticeps, in Oryza sativa, 24 h; for LD50: read-out: LD50 (median lethal dose), topical, green rice leafhoppers; for mortality at 10 ng: read-out: Pesticidal effect, green rice leafhopper
Protocol: Mortality test with green rice leafhoppers (Nephotettix cincticeps Uhler) by topical application method
Then, the insects were kept at 25° C. with access to rice plant seedlings. The insects were used in groups of 15 individuals each.

[3] = Fish toxicity test with guppies; format: in vivo, Lebistes reticulatus; conditions: guppy, water, guppies, 20° C., read-out: TLm (48 hrs.)
Protocol: (§1) Fish toxicity test with guppies (Lebistes reticulatus)
(§2) To 5 liters of water were added 250 mg of Sorpol SM-200 (trademark, Toho Chemical Co., Ltd.) as a surfactant and 2.5 ml of an acetone solution containing one of the test compounds in a predetermined concentration. The mixture was stirred thoroughly to prepare a test water. Ten female guppies (Lebistes reticulatus) of from 3 to 4 months of age were released into the test water which was maintained at 20° C. and the TLm (median tolerance limit, ppm) was determined.

[4] = test system: guppies (Lebistes reticulatus); assay: Fish toxicity test with guppies; format: in vivo; conditions: Table 1; 48 hrs.
Protocol: as §1, §2

[5] = test system: rice stem borers (Chilo suppressalis Walker); assay: Mortality test with rice stem borers by topical application method; format: in vivo; conditions: for mortality at 0.001 mg: read-out: Pesticidal effect, rice stem borer
Protocol: Mortality test with rice stem borers (Chilo suppressalis Walker) by topical application method
Using a microsyringe, 0.5 μl of the above solution was applied to the thoracic abdominal region of each final-instar larva of rice stem borer (Chilo suppressalis Walker). […] The test larvae were used in groups of 20 individuals each.

[6] = test system: tobacco cutworms (Prodenia litura Fabricius); assay: Mortality test with tobacco cutworms by topical application method; format: in vivo
Protocol: Mortality test with tobacco cutworms (Prodenia litura Fabricius) by topical application method
Using a microsyringe, 0.5 μl of the above solution was dripped onto the thoracic adbominal region of each of 3-instar tobacco cutworm (Prodenia litura Fabricius) larvae. […] The test larvae were used in groups of 20 individuals each.

[7] = Fish toxicity test with carp; format: in vivo, Cyprinus carpio L; conditions: carp, water, 48 hrs., 21±1° C.; read-out: TLm, Carp (48 hrs.)
Protocol: Fish toxicity test with carp (Cyprinus carpio L)
An acetone solution of one of the test compounds as mentioned in Table 10 and Tween-20 (the same surfactant as mentioned hereinbefore) was prepared. To 50 liters of water (30 cm deep) in a glass tank was added the above acetone solution. The mixture was stirred thoroughly to prepare an aqueous solution containing the test compound in a predetermined concentration. This was used as a test water. Five carps (Cyprinus carpio L) with a body weight of about 6 g and a body length of about 6 cm were released into each test water which was maintained at 21±1° C. After 48 hours, the test fish was examined for death. The TLm (median tolerance limit, ppm) was determined. The test water was moderately aerated.

carp and water flea = assay: Fish toxicity ranking according to Japanese regulations; parameters: species or system Cyprinus carpio L; Daphnia pulex; conditions: from TLm for carp and water flea
Protocol: The above ranking with symbols A, B and C were determined according to Japanese regulations relative to application of agricultural chemicals, and these symbols are defined as follows: […]
A: TLm (48 hrs.) value >10 ppm for carp and TLm (3 hrs.) value >0.5 ppm for water flea, wherein toxicity to fishes is not observed by usual application.
B: TLm (48 hrs.) value 10-0.5 ppm for carp; or TLm (48 hrs.) value >10 ppm for carp and TLm (3 hrs.) value <0.5 ppm for water flea, wherein appreciable toxicity to fishes is not observed by usual application but may be observed when applied to wide area at one time.
C: TLm (48 hrs.) value <0.5 ppm for carp, wherein toxicity to fishes is so strongly observed by usual application that both the application method and application area are strictly restricted.

[8] = test system: tobacco cutworm (Prodenia litura); assay: Utility Example-5: spray on soy bean leaves, tobacco cutworm larvae; format: in vivo; conditions: 48 h, 2 days
Protocol: An acetone solution of one of the test compounds as mentioned in Table 13 and Tween-20 (the same surfactant as mentioned hereinbefore) was prepared. This acetone solution was diluted with water to prepare a solution containing the test compound in a predetermined concentration. Leaves of soy bean in pots were sprayed with the above diluted solution at the rate of 20 ml/pot and, after one day, ten 3-instar larvae of tobacco cutworm (Prodenia litura) were released on the leaves. The pots were kept in a constant-temperature chamber at 25° C.

[9] = test system: brown planthoppers (Nilaparvata lugens Stal); assay: Utility Example-1: LC50 on adult brown planthoppers on dipped rice plants; format: in vivo; conditions: Nilaparvata lugens, 24 h, 25° C., read-out: Pesticidal activity LC50
Protocol: A 1% emulsifiable concentrate of each test compound as prepared by the procedure described in Formulation Example 2 was diluted with water to prepare a test solution of predetermined concentration.
Rice plants, 4 weeks after sowing (cultivated in a pot 6 cm in diameter, 7 seedlings) were dipped in the above solution and after allowing them to dry in the air, the pot was covered with a wire-mesh cage. Then, 30 adult brown planthoppers (Nilaparvata lugens Stal) were released into the cage and the pot was kept in a constant-temperature chamber at 25° C.

[10] = Fish toxicity safety factor (TLm divided by maximum concentration in cover water); parameters: species or system carp; conditions: in vivo, TLm / maximum concentration in cover water at LC50 application (100 l per 10 ares, 5 cm depth)
Protocol: To further confirm the low toxicity to fish and high pesticidal activity of Compounds (1) and (2) according to this invention as evidenced by the fish toxicity tests with carps and the above tests, fish toxicity safety factors were calculated from the fish toxicity and pesticidal test data. These fish toxicity safety factors are indicators of safety to fish inhabiting a paddy field to which Compounds (1) and (2) may be actually applied for pest control purposes.
It is first assumed that such a pesticidal solution would normally be applied at the rate of 100 l per 10 ares of paddy field. It is also assumed that a solution (100 l) corresponding to the LC50 of the compounds would be applied to 10 ares of a paddy field carrying a cover water with a depth of 5 cm above ground surface and that all the solution would then find its way into the cover water. The expected maximum concentration of the compound in the cover water is then calculated. The fish toxicity safety factor of a pesticidal compound is defined as the value obtained by dividing the TLm (ppm) of the particular compound by the maximum concentration of the compound in cover water. The meaning of the value of the fish toxicity safety factor being one (1) is that the maximum concentration of the particular compound in cover water corresponds to the TLm of said compound. It is understood that when the pesticidal compound having a fish toxicity safety factor value of less than one (1) is applied to a paddy field, it has a risk of destroying the fish inhabiting there, and that the higher the safety factor value, the higher is the safety of the compound to fish.
This fish toxicity safety factor will now be explained in further detailed by taking the trans-isomer of Compound (2) of this invention as an example.
On the other hand, the toxicity to fish of this compound is TLm >10 ppm. Therefore, by dividing the TLm (i.e. >10 ppm) by the above cover water maximum concentration (i.e. 0.36 ppm), we obtain a fish toxicity safety factor of >28. Thus, the concentration of the trans-isomerof Compound (2) which kills 50% of pests corresponds to less than 1/28 of the concentration of the same isomer which kills 50% of fish. In other words, this means that the trans-isomer of Compound (2) is extremely safe to fish.

[11] = 24 h, read-out: Pesticidal effect, tobacco cutworm
[12] = 1.0 μg/Larva, final-instar larva, 24 hours, read-out: % Mortality
[13] = 10 μg/Larva, final-instar larva, 24 hours, read-out: % Mortality
[14] = 0.1 μg/Larva, 3-instar larvae, 24 hours, read-out: % Mortality

Compound: CC1(C)C(C=C(Cl)Cl)C1C(=O)OCc1cccc(Oc2ccc(Cl)c(Cl)c2)c1 (stereo not drawn)
- mortality at 0.5 µg/female [1]: 0%
- mortality at 1 µg/female [1]: 20%

Compound: CCC(C)c1ccccc1OC(=O)NC (stereo not drawn) [Bassa, o-sec-butylphenyl methylcarbamate]
- LD50 [2]: 93.8 mg/kg

Compound: Cc1ccc(Oc2cccc(C(C#N)OC(=O)C3C(C=C(Cl)Cl)C3(C)C)c2)cc1C (stereo not drawn)
- mortality at 0.5 µg/female [1]: 40%
- mortality at 1 µg/female [1]: 80%

Compound: CCOP(=S)(OCC)Oc1cc(C)nc(C(C)C)n1 [Diazinon, diazinon]
- LD50 [2]: 72.2 mg/kg

Compound: CC1(C)C(C=C(Cl)Cl)C1C(=O)OCc1cccc(Oc2ccccc2Cl)c1 (stereo not drawn)
- mortality at 0.5 µg/female [1]: 30%
- mortality at 1 µg/female [1]: 60%

Compound: C#CC(OC(=O)C1C(C=C(Cl)Cl)C1(C)C)c1cccc(Oc2ccccc2)c1 (stereo not drawn) [Compound (F)]
- mortality at 0.01 µg/female [2]: 100%
- mortality at 0.1 µg/female [2]: 100%
- mortality at 1 µg/female [2]: 100%
- mortality at 10 ng [2]: 100%
- LC50 at 48 h [3]: < 0.5 µg/mL
- Toxicity to fish TLm, guppy [4]: < 0.5 ppm
- mortality at 0.5 µg/female [1]: 100%
- mortality at 1 µg/female [1]: 100%
- mortality at 0.001 mg [1]: 100%

Compound: CC1(C)C(C=C(Cl)Cl)C1C(=O)OC(C#N)c1cccc(Oc2cc(Cl)cc(Cl)c2)c1 (stereo not drawn)
- mortality at 0.5 µg/female [1]: 0%
- mortality at 1 µg/female [1]: 27%

Compound: CC1(C)C(C=C(Cl)Cl)C1C(=O)OC(C#N)c1cccc(Oc2ccc(Br)cc2)c1 (stereo not drawn) [Compound (H)]
- mortality at 0.01 µg/female [2]: 100%
- mortality at 0.1 µg/female [2]: 100%
- mortality at 1 µg/female [2]: 100%
- mortality at 10 ng [2]: 100%
- mortality at 1 µg/larva ([5]; 24 h): 90%
- mortality at 10 µg/larva ([5]; 24 h): 100%
- mortality at 0.001 mg ([5]; 24 h): 90%
- mortality at 0.0001 mg ([6]; 24 h): 60%
- mortality at 0.0001 mg [6, 11]: 60%
- LC50 at 48 h [7]: 0.063 µg/mL (≈ 0.127 µM)
- Ranking (carp and water flea): C (TLm (48 hrs.) value <0.5 ppm for carp, wherein toxicity to fishes is so strongly observed by usual application that both the application method and application area are strictly restricted.)
- mortality at 6.5 ppm [8]: 40%
- mortality at 13 ppm [8]: 100%
- mortality at 0.5 µg/female [1]: 100%
- mortality at 1 µg/female [1]: 100%
- mortality at 0.001 mg [1]: 100%

Compound: CC1(C)C(C=C(Cl)Cl)C1C(=O)OCc1cccc(Oc2ccc(Cl)cc2)c1 (stereo not drawn) [Compound (1) cis-/trans- = 30:70]
- LD50 (median lethal dose) ([2]; green rice leafhoppers, 1440 min): 0.85 µg/g

Compound: CC(C)C(C(=O)OC(C#N)c1cccc(Oc2ccc(Cl)cc2)c1)c1ccc(Cl)cc1 (stereo not drawn) [Compound (L)]
- mortality at 1 µg/larva [5, 12]: 85%
- mortality at 10 µg/larva [5, 13]: 100%
- mortality at 0.0001 mg [6, 14]: 35%
- LC50 at 48 h [7]: 0.032 µg/mL (≈ 0.0704 µM)
- Ranking (carp and water flea): C (TLm (48 hrs.) value <0.5 ppm for carp, wherein toxicity to fishes is so strongly observed by usual application that both the application method and application area are strictly restricted.)
- LC50 [9]: 2260 µg/mL (≈ 4970 µM)
- selectivity ratio [10]: 0.0071

Compound: CC1(C)C(C=C(Cl)Cl)C1C(=O)OCc1cccc(Oc2ccc(Br)cc2)c1 (stereo not drawn)
- mortality at 6.5 ppm [8]: 10%
- mortality at 13 ppm [8]: 100%

Compound: CC(C)=CC1C(C(=O)OCc2cccc(Oc3ccccc3)c2)C1(C)C (stereo not drawn) [Compound (A), Phenothrin]
- mortality at 0.01 µg/female [2]: 80%
- mortality at 0.1 µg/female [2]: 100%
- mortality at 1 µg/female [2]: 100%
- LD50 [2]: 1.22 mg/kg
- mortality at 10 ng [2]: 80%
- mortality at 1 µg/larva ([5]; 24 h): 45%
- mortality at 10 µg/larva ([5]; 24 h): 100%
- mortality at 0.001 mg ([5]; 24 h): 45%
- mortality at 0.0001 mg ([6]; 24 h): 35%
- mortality at 0.0001 mg [6, 11]: 35%
- mortality at 0.5 µg/female [1]: 97%
- mortality at 1 µg/female [1]: 100%
- mortality at 0.001 mg [1]: 100%

Compound: COP(=S)(OC)Oc1ccc([N+](=O)[O-])c(C)c1 [Fenitrothion, fenitrothion]
- LD50 [2]: 4050 mg/kg

Compound: CC1(C)C(C=C(Cl)Cl)C1C(=O)OCc1cccc(Oc2cccc(Cl)c2)c1 (stereo not drawn)
- mortality at 0.5 µg/female [1]: 60%
- mortality at 1 µg/female [1]: 93%

Compound: Cc1ccc(Oc2cccc(COC(=O)C3C(C=C(Cl)Cl)C3(C)C)c2)cc1 (stereo not drawn)
- mortality at 0.5 µg/female [1]: 80%
- mortality at 1 µg/female [1]: 100%

Compound: CCOC(=O)CC(SP(=S)(OC)OC)C(=O)OCC (stereo not drawn) [Malathion, malathion]
- LD50 [2]: 565 mg/kg

Compound: C#CC(OC(=O)C(c1ccc(Cl)cc1)C(C)C)c1cccc(Oc2ccc(Cl)cc2)c1 (stereo not drawn) [Compound (K)]
- mortality at 0.01 µg/female [2]: 33%
- mortality at 0.1 µg/female [2]: 100%
- mortality at 1 µg/female [2]: 100%
- mortality at 0.0001 mg [6, 14]: 0%

Compound: C#CC(OC(=O)C1C(C=C(Cl)Cl)C1(C)C)c1cccc(Oc2ccc(Br)cc2)c1 (stereo not drawn)
- mortality at 6.5 ppm [8]: 0%
- mortality at 13 ppm [8]: 90%

Compound: Cc1cccc(Oc2cccc(COC(=O)C3C(C=C(Cl)Cl)C3(C)C)c2)c1 (stereo not drawn)
- mortality at 0.5 µg/female [1]: 50%
- mortality at 1 µg/female [1]: 80%

Compound: CC(C)C(C(=O)OCc1cccc(Oc2ccc(Cl)cc2)c1)c1ccc(Cl)cc1 (stereo not drawn) [Compound (J)]
- mortality at 1 µg/larva [5, 12]: 15%
- mortality at 10 µg/larva [5, 13]: 90%
- mortality at 0.0001 mg [6, 14]: 0%
